Test results as given in patent publication US9908895B2, “Tricyclic fused thiophene derivatives as JAK inhibitors” (Incyte Corporation, priority 2012, dated 2018).
Where a name gives a salt, the structure may show the parent alone. Read-outs that look alike come from different tables or passages of the source.

Tests used:
Type in all cases: biochemical
[1] = molecular target: human JAK2 (Homo sapiens (Human), UniProt O60674); test: In vitro JAK kinase assay (HTRF), JAK2; conditions: 1 mM ATP
Method: Compounds herein were tested for inhibitory activity of JAK targets according to the following in vitro assay described in Park et al., Analytical Biochemistry 1999, 269, 94-104. The catalytic domains of human JAK1 (a.a. 837-1142), JAK2 (a.a. 828-1132) and JAK3 (a.a. 781-1124) were expressed using baculovirus in insect cells and purified. The catalytic activity of JAK1, JAK2 or JAK3 was assayed by measuring the phosphorylation of a biotinylated peptide. The phosphorylated peptide was detected by homogenous time resolved fluorescence (HTRF). IC50s of compounds were measured for each kinase in the 40 μL reactions that contain the enzyme, ATP and 500 nM peptide in 50 mM Tris (pH 7.8) buffer with 100 mM NaCl, 5 mM DTT, and 0.1 mg/mL (0.01%) BSA. For the 1 mM IC50 measurements, ATP concentration in the reactions was 1 mM. Reactions were carried out at room temperature for 1 hour and then stopped with 20 μL 45 mM EDTA, 300 nM SA-APC, 6 nM Eu-Py20 in assay buffer (Perkin Elmer, Boston, Mass.). Binding to the Europium labeled antibody took place for 40 minutes and HTRF signal was measured on a PHERA star plate reader (BMG, Cary, N.C.). The Example compounds were each tested in the Example A assay (see Table 1 for data for the compounds of the examples as tested by the assay of Example A at 1 mM ATP).

[2] = molecular target: human JAK1 (Homo sapiens, UniProt P23458); test: In vitro JAK kinase assay (HTRF), JAK1; conditions: 1 mM ATP
Method in brief: (§1)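 Baculovirus-expressed catalytic domains (JAK1 a.a. 837-1142, JAK2 a.a. 828-1132) phosphorylate 500 nM biotinylated peptide at 1 mM ATP, Tris pH 7.8, 1 h at room temperature. EDTA stop and HTRF detection with Eu-Py20/SA-APC; IC50 values derived.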

[3] = tested on: human JAK1; test: In vitro JAK kinase assay (HTRF), JAK1; conditions: ratio of JAK2 IC50 to JAK1 IC50 at 1 mM ATP
Method in brief: as §1

Chain of human JAK2 (O60674 828-1132): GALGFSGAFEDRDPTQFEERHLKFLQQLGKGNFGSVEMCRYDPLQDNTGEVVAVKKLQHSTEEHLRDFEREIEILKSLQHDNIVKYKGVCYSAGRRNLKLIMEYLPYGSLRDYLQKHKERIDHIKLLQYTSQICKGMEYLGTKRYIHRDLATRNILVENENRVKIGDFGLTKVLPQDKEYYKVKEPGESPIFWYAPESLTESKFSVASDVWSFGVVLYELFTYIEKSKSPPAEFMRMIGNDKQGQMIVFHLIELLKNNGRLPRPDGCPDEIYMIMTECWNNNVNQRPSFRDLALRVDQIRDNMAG

Row | IC50 [1] | IC50 ([2]; read-out: JAK1 IC50) | Compound | IC50 ([2]; JAK1 IC50 (nM)) | JAK2/JAK1 [3]
1 | – | – | Cc1nc2cnc3ccsc3c2n1[C@@H]1CC[C@@H](CC#N)[C@H](O)C1.Cc1nc2cnc3ccsc3c2n1[C@H]1CC[C@H](CC#N)[C@@H](O)C1 (mixture of isomers) [41 (second peak), [(1R,2S,4S)-4-(2-Methyl-1H-imidazo[4,5-d]thieno[3,2-b]pyridin-1-yl)-2-hydroxycyclohexyl]acetonitrile and [(1S,2R,4R)-4-(2-methyl-1H-imidazo[4,5-d]thieno[3,2-b]pyridin-1-yl)-2-hydroxycyclohexyl]acetonitrile] | > 2000 nM | –
2 | < 2000 nM | < 1000 nM | Cc1nc2cnc3ccsc3c2n1[C@H]1CC[C@H](CC#N)[C@H](O)C1 (racemic) [Example 34, Mixture of [(1R,2R,4S)-2-hydroxy-4-(2-methyl-1H-imidazo[4,5-d]thieno[3,2-b]pyridin-1-yl)cyclohexyl]acetonitrile trifluoroacetate and [(1S,2S,4R)-2-hydroxy-4-(2-methyl-1H-imidazo[4,5-d]thieno[3,2-b]pyridin-1-yl)cyclohexyl]acetonitrile trifluoroacetate] | – | –
3 | – | < 1000 nM | C[C@@H](O)c1nc2cnc3ccsc3c2n1C1CCNCC1F (single isomer, unassigned) [9 (2nd peak)] | – | >10
4 | > 2000 nM | – | C[C@@H](O)c1nc2cnc3ccsc3c2n1C1CCC(O)(CC#N)CC1 (single isomer, unassigned) [24 (second peak)] | – | >10
5 | – | – | ((1R,2R,4S)-2-Hydroxy-4-{2-[(1R)-1-hydroxyethyl]-1H-imidazo[4,5-d]thieno[3,2-b]pyridin-1-yl}cyclohexyl)acetonitrile and ((1S,2S,4R)-2-hydroxy-4-{2-[(1R)-1-hydroxyethyl]-1H-imidazo[4,5-d]thieno[3,2-b]pyridin-1-yl}cyclohexyl)acetonitrile [36 (second peak)] | – | >10
6 | – | – | ((1R,2S,4S)-2-Hydroxy-4-{2-[(1R)-1-hydroxyethyl]-1H-imidazo[4,5-d]thieno[3,2-b]pyridin-1-yl}cyclohexyl)acetonitrile trifluoacetate and ((1S,2R,4R)-2-hydroxy-4-{2-[(1R)-1-hydroxyethyl]-1H-imidazo[4,5-d]thieno[3,2-b]pyridin-1-yl}cyclohexyl)acetonitrile trifluoacetate [37 (first peak)] | – | >10
7 | – | – | ((1R,2S,4S)-2-Hydroxy-4-{2-[(1R)-1-hydroxyethyl]-1H-imidazo[4,5-d]thieno[3,2-b]pyridin-1-yl}cyclohexyl)acetonitrile trifluoacetate and ((1S,2R,4R)-2-hydroxy-4-{2-[(1R)-1-hydroxyethyl]-1H-imidazo[4,5-d]thieno[3,2-b]pyridin-1-yl}cyclohexyl)acetonitrile trifluoacetate [37 (second peak)] | – | >10
8 | – | – | [(1R,2S,4S)-4-(2-Ethyl-1H-imidazo[4,5-d]thieno[3,2-b]pyridin-1-yl)-2-hydroxycyclohexyl]acetonitrile and [(1S,2R,4R)-4-(2-ethyl-1H-imidazo[4,5-d]thieno[3,2-b]pyridin-1-yl)-2-hydroxycyclohexyl]acetonitrile [40 (first peak)] | – | >10

Row | Compound | IC50 [1] | IC50 ([2]; read-out: JAK1 IC50) | IC50 ([2]; JAK1 IC50 (nM)) | JAK2/JAK1 [3]
9 | Cc1nc2cnc3ccsc3c2n1[C@@H]1CC[C@@H](CC#N)[C@H](O)C1.Cc1nc2cnc3ccsc3c2n1[C@H]1CC[C@H](CC#N)[C@@H](O)C1 (mixture of isomers) [41 (first peak), [(1R,2S,4S)-4-(2-Methyl-1H-imidazo[4,5-d]thieno[3,2-b]pyridin-1-yl)-2-hydroxycyclohexyl]acetonitrile and [(1S,2R,4R)-4-(2-methyl-1H-imidazo[4,5-d]thieno[3,2-b]pyridin-1-yl)-2-hydroxycyclohexyl]acetonitrile] | < 1000 nM | – | < 100 nM | –
